Experimental data: the supplement of paper PMC10307832

Legend:
Assay in all cases: relative viability (nuclei count vs DMSO), 5 days (fraction); higher = more cells survive
[1] = compound: Cn1cc(-c2cnn3c(N)c(Br)c([C@@H]4CCCNC4)nc23)cn1 + CC(C)C[C@H](NC(=O)[C@H](Cc1ccccc1)NC(=O)c1cnccn1)B(O)O [Bortezomib] (partner 0.002 µM)
Procedure, shortened: (§1)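 Lung cancer cell lines in 1536-well plates got either a single drug or a fixed anchor-drug dose together with five library-drug doses (not always all listed) in √10 steps, by pin tool, on the day after seeding. Nuclei were counted after 5 days, and relative viability is the treated-to-vehicle ratio of nuclei counts. Values are medians of duplicate plates.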

[2] = compound: Cn1cc(-c2cnn3c(N)c(Br)c([C@@H]4CCCNC4)nc23)cn1 + Cc1cc(Nc2cc(N3CCN(C)CC3)nc(Sc3ccc(NC(=O)C4CC4)cc3)n2)n[nH]1 [Tozasertib] (partner 0.1 µM)
Procedure, shortened: as §1

[3] = compound: Cn1cc(-c2cnn3c(N)c(Br)c([C@@H]4CCCNC4)nc23)cn1 + NC(=O)Nc1cc(-c2cccc(F)c2)sc1C(=O)N[C@H]1CCCNC1 [AZD7762] (partner 0.2 µM)
Procedure, shortened: as §1

[4] = compound: Cn1cc(-c2cnn3c(N)c(Br)c([C@@H]4CCCNC4)nc23)cn1 + Nc1ncn([C@H]2C[C@H](O)[C@@H](CO)O2)c(=O)n1 [Decitabine] (partner 2 µM)
Procedure, shortened: as §1

Row | Cell Line | relative viability ([1]; first compound 0.05 µM) | relative viability ([1]; first compound 0.1581 µM) | relative viability ([1]; first compound 0.5 µM) | relative viability ([1]; first compound 1.581 µM) | relative viability ([1]; first compound 5 µM) | relative viability ([2]; first compound 0.05 µM) | relative viability ([2]; first compound 0.1581 µM) | relative viability ([2]; first compound 0.5 µM) | relative viability ([2]; first compound 1.581 µM) | relative viability ([2]; first compound 5 µM) | relative viability ([3]; first compound 0.05 µM) | relative viability ([3]; first compound 0.1581 µM) | relative viability ([3]; first compound 0.5 µM) | relative viability ([3]; first compound 1.581 µM) | relative viability ([3]; first compound 5 µM) | relative viability ([4]; first compound 0.05 µM) | relative viability ([4]; first compound 0.1581 µM) | relative viability ([4]; first compound 0.5 µM) | relative viability ([4]; first compound 1.581 µM) | relative viability ([4]; first compound 5 µM)
1 | HOP-62 | 0.847 | 1.02 | 1.28 | 0.708 | 0.294 | 0.334 | 0.348 | 0.335 | 0.252 | 0.249 | 0.526 | 1.06 | 0.622 | 0.534 | 0.271 | 0.252 | 0.2 | 0.191 | 0.239 | 0.269
2 | LU99A | 1.16 | 1.25 | 1.05 | 1.14 | 0.679 | 0.271 | 0.243 | 0.258 | 0.243 | 0.193 | 0.371 | 0.392 | 0.304 | 0.264 | 0.224 | 0.912 | 0.92 | 0.875 | 0.822 | 1.01
3 | NCI-H647 | 1.15 | 1.05 | 0.648 | 0.696 | 0.38 | 0.329 | 0.312 | 0.0065 | 0.182 | 0.173 | 0.497 | 0.496 | 0.349 | 0.37 | 0.238 | 0.434 | 0.522 | 0.42 | 0.409 | 0.143
4 | A-427 | 1 | 0.937 | 1.2 | 0.961 | 0.743 | 0.185 | 0.246 | 0.206 | 0.192 | 0.154 | 0.72 | 0.569 | 0.566 | 0.502 | 0.344 | 0.534 | 0.591 | 0.555 | 0.544 | 0.33
5 | NCI-H441 | 1.05 | 0.585 | 0.87 | – | 0.448 | 0.922 | 0.777 | 0.651 | 0.675 | 0.657 | 1.27 | 1.32 | 1.05 | 1.1 | 0.956 | 0.257 | 0.249 | 0.26 | 0.22 | 0.257
6 | NCI-H2126 | 1.1 | 1.22 | 1.15 | 1.02 | 1.14 | 0.809 | 0.819 | 0.774 | 0.611 | 0.644 | 1.05 | 1.03 | 0.997 | 0.993 | 0.986 | 0.544 | 0.581 | 0.563 | 0.526 | 0.632
7 | HCC-44 | 0.91 | 1.11 | 0.923 | 0.882 | 0.796 | – | 0.875 | 1.12 | 0.637 | 0.618 | 0.889 | 1.01 | 1.02 | 0.964 | 1.05 | 0.887 | 1.06 | 1.04 | 0.969 | 0.964
8 | NCI-H460 | 0.993 | 1.74 | 0.792 | 0.401 | 0.529 | 0.421 | 0.482 | 0.537 | 0.475 | 0.222 | 0.496 | 0.579 | 0.603 | 0.757 | 0.519 | 0.523 | 0.546 | 0.31 | 0.356 | 0.19
9 | NCI-H322M | 1.2 | 1.32 | 1.22 | 1.21 | 1.26 | 0.468 | 0.315 | 0.406 | 0.359 | 0.294 | 0.51 | 0.428 | 0.501 | 0.447 | 0.407 | 0.617 | 0.706 | 0.65 | 0.635 | 0.44
10 | EKVX | 1.06 | 1.16 | 0.987 | 0.836 | 1.07 | 0.423 | 0.449 | 0.448 | 0.462 | 0.344 | 0.76 | 0.75 | 0.711 | 0.603 | 0.537 | 0.768 | 0.414 | 0.343 | 0.571 | 0.41
11 | NCI-H1734 | 1.02 | 1.13 | 0.798 | 0.865 | 0.746 | 0.214 | 0.25 | 0.284 | 0.213 | 0.211 | 0.531 | 0.572 | 0.48 | 0.469 | 0.474 | 0.518 | 0.491 | 0.49 | 0.437 | 0.448
12 | ABC-1 | 0.364 | 0.284 | 0.298 | 0.331 | 0.287 | 0.159 | 0.156 | 0.219 | 0.127 | 0.136 | 0.689 | 0.984 | 0.755 | 0.599 | 0.5 | – | 1.3 | 1.02 | 1.18 | 0.731
13 | EPLC-272H | 0.853 | 0.891 | 0.933 | 0.769 | 0.82 | 0.252 | 0.249 | 0.25 | 0.247 | 0.226 | 0.13 | 0.195 | 0.179 | 0.17 | 0.178 | 0.342 | 0.304 | 0.336 | 0.303 | 0.253
14 | NCI-H1993 | 1.09 | 1.16 | – | 0.931 | 0.846 | 0.62 | 0.602 | 0.463 | 0.513 | 0.538 | 0.642 | 0.84 | 0.616 | 0.733 | 0.664 | 0.602 | 0.49 | 0.621 | 0.55 | 0.524
15 | NCI-H596 | 1.06 | 0.964 | 0.9 | 0.804 | 1.02 | 1.02 | 1.08 | 0.719 | 0.857 | 0.562 | 1.13 | 1.06 | 1.06 | 1.01 | 1.1 | 0.973 | 0.968 | 1.03 | 0.916 | 1.12
16 | HCC-827 | 0.919 | 1.03 | 1.18 | 1.1 | 1.01 | 0.426 | 0.392 | 0.439 | 0.516 | 0.394 | 0.183 | 0.188 | 0.193 | 0.211 | 0.17 | 0.34 | 0.38 | 0.339 | 0.361 | 0.305
17 | ChaGo-K-1 | 0.909 | 1.01 | 0.826 | 0.717 | 0.682 | 0.222 | 0.22 | 0.227 | 0.224 | 0.225 | 0.843 | 0.801 | 0.866 | 0.761 | 0.755 | 0.52 | 0.559 | 0.526 | 0.563 | 0.601
18 | EMC-BAC-2 | 1.04 | 1.14 | 1.13 | 1.02 | 1.15 | 0.277 | 0.292 | 0.251 | 0.252 | 0.218 | 1.05 | 1.26 | 1.08 | 1.04 | 0.821 | 0.976 | 1.02 | 0.981 | 0.827 | 0.887
19 | NCI-H23 | 1.08 | 1.28 | 1.01 | 0.473 | 0.239 | 0.247 | 0.878 | 0.399 | 0.311 | 0.179 | 0.253 | 0.273 | 0.25 | 0.162 | 0.123 | 0.295 | 0.278 | 0.362 | 0.267 | 0.269
20 | RERF-LC-KJ | 1.12 | 1.17 | 1.02 | 0.96 | 0.953 | 0.52 | 0.502 | 0.501 | 0.346 | 0.384 | 1.1 | 0.864 | 1.1 | 0.872 | 0.749 | 0.822 | 0.85 | 0.636 | 0.549 | 0.628
21 | LC-2-ad | 1.03 | 1.15 | 0.938 | 1.06 | 0.935 | 0.39 | 0.382 | 0.442 | 0.464 | 0.355 | 0.841 | 0.949 | 0.819 | 0.805 | 0.881 | 0.856 | 0.811 | 0.856 | 0.781 | 0.908
22 | HCC-15 | 1.16 | 1.18 | 1.03 | 0.788 | 1.11 | 0.401 | 0.392 | 0.386 | 0.256 | 0.212 | 1.18 | 1.29 | 1.3 | 1.31 | 1.36 | 0.652 | 0.689 | 0.633 | 0.552 | 0.561
23 | NCI-H2405 | 0.961 | 1.06 | 1.01 | 0.95 | 0.691 | 0.733 | 0.784 | 0.723 | 0.743 | 0.498 | 0.682 | 0.75 | 0.659 | 0.476 | 0.501 | 0.747 | 0.819 | 0.776 | 0.71 | 0.713
24 | LXF-289 | 1.01 | 1.09 | 0.978 | 0.88 | 0.994 | 0.209 | 0.219 | 0.189 | 0.168 | 0.162 | 1.09 | 1.16 | 1.09 | 0.981 | 1.05 | 0.368 | 0.41 | 0.401 | 0.382 | 0.485
25 | NCI-H1755 | 1.04 | 1.03 | 0.952 | 0.879 | 0.711 | 0.715 | 0.619 | 0.648 | 0.54 | 0.489 | 0.518 | 0.511 | 0.416 | 0.4 | 0.307 | 0.722 | 0.81 | 0.774 | 0.793 | 0.855
26 | NCI-H1437 | 0.515 | 0.581 | 0.577 | 0.432 | 0.316 | 0.414 | 0.46 | 0.402 | 0.361 | 0.381 | 1.11 | 1.18 | 1.08 | 1.01 | 0.889 | 0.556 | 0.695 | 0.655 | 0.623 | 0.21
27 | NCI-H2085 | 1.12 | 1.13 | 1.08 | 0.813 | 0.909 | 0.807 | 0.928 | 0.866 | 0.811 | 0.736 | 0.964 | 1.12 | 1.01 | 0.765 | 0.719 | 0.532 | 0.594 | 0.551 | 0.545 | 0.624
